Reference: ChEMBL document CHEMBL1250431, “Morphinans and isoquinolines: acetylcholinesterase inhibition, pharmacophore modeling, and interaction with opioid receptors” (Bioorg Med Chem, 2010)

Assays:
[1] = target: Acetylcholinesterase (Electrophorus electricus, UniProt O42275); experiment: Inhibition of electric eel AChE by Ellman's method
[2] = target: Kappa-type opioid receptor (Cavia porcellus, UniProt P41144); experiment: Displacement of [3H]U69593 from kappa opioid receptor in guinea pig brain membrane; format: cell membranes
[3] = target: Delta-type opioid receptor (Rattus norvegicus, UniProt P33533); experiment: Displacement of [3H][Ile5,6]deltorphin2 from delta opioid receptor in rat brain membrane; format: cell membranes
[4] = target: Mu-type opioid receptor (Rattus norvegicus, UniProt P33535); experiment: Displacement of [3H]DAMGO from mu opioid receptor in rat brain membrane; format: cell membranes
Chain of Mu-type opioid receptor (P33535 whole entry): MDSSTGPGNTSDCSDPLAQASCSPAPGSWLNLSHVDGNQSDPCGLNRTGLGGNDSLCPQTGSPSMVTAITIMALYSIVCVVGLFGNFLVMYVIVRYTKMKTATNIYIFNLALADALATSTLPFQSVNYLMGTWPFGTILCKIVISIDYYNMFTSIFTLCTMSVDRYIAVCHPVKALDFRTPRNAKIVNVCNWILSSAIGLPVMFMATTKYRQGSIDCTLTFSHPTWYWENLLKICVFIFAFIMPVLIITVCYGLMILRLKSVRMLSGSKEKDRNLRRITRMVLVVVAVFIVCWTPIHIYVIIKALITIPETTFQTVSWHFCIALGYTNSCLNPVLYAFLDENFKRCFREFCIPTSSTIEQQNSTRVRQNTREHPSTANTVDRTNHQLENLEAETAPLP

Chain of Kappa-type opioid receptor (P41144 whole entry): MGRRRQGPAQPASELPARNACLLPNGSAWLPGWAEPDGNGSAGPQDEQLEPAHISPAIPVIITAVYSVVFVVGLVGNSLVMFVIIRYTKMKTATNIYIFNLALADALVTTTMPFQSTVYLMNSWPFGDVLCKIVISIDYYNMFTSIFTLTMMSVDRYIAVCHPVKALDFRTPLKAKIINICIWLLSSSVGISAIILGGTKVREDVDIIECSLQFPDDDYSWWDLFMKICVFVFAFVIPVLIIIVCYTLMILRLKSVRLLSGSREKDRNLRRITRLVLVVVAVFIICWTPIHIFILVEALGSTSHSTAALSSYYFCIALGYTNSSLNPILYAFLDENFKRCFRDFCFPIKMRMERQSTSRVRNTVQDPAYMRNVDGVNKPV
Chain of Delta-type opioid receptor (P33533 whole entry): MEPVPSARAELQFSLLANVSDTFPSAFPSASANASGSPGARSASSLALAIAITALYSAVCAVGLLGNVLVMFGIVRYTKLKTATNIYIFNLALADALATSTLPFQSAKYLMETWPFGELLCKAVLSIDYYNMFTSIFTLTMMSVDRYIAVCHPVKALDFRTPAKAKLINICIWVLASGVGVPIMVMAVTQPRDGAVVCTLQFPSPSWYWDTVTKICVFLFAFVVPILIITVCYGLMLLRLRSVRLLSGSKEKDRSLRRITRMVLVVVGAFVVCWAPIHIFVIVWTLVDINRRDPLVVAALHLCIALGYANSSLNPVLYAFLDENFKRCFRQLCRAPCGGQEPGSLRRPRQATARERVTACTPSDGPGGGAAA
Chain of Acetylcholinesterase (O42275 whole entry): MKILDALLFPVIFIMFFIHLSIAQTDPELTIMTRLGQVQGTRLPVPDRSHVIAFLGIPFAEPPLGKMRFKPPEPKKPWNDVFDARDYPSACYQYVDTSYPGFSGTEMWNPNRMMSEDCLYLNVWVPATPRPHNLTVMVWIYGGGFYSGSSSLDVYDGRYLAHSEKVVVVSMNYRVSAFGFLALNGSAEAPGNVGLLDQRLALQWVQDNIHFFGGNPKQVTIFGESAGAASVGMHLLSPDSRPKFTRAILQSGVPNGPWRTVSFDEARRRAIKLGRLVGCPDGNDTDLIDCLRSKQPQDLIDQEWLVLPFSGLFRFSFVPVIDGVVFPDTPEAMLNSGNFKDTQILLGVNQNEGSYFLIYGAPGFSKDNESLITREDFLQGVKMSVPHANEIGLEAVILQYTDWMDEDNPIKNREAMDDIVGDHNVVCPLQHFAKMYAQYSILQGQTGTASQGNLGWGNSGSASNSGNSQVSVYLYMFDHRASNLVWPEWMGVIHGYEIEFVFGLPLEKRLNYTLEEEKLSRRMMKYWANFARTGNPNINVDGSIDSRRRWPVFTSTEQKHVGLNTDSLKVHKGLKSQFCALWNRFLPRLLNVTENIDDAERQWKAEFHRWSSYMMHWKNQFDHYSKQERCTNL

Structure (SMILES) | IC50 [1] [nM] | Ki [2] [nM] | Ki [3] [nM] | Ki [4] [nM] | Ki [1] [nM]
COC1CCC2C(Cc3cccc(O)c3)=NCCC2C1 (stereo unspecified) | 43100 | > 10000 | > 10000 | 2320 | –
COC1=CCC2=C(CCNC2Cc2ccccc2O)C1 (stereo unspecified) | 138000 | > 10000 | > 10000 | > 10000 | –
C=CCN1CC[C@]23CC(=O)CC[C@H]2[C@H]1Cc1cccc(OC)c13 | – | 113 | 217 | 6.55 | –
CCO[C@@]12CCC(=O)C[C@@]13CCN(C)[C@@H]2Cc1cccc(O)c13 | 37100 | 33.1 | 316 | 20.2 | –
O=CN1CC[C@]23CC(=O)CC[C@H]2[C@H]1Cc1c(O)ccc(O)c13 | – | 328 | 1250 | 67.2 | –
O=CN1CC[C@]23CC(=O)CC[C@H]2[C@H]1CC1C(=O)C=CC(=O)C13 (stereo partly specified) | 12700 | 43.2 | 12.2 | 0.46 | –
COc1cccc(CC2=NCCc3cc(OC)ccc32)c1 | 42900 | – | – | – | –
C=CCN1CC[C@]23CC(=O)CC[C@H]2[C@H]1Cc1cccc(OC(C)=O)c13 | 193000 | – | – | – | –
O=CN1CC[C@]23c4c5cccc4O[C@H]2C(=O)CC[C@H]3[C@H]1C5 | 60300 | > 10000 | > 10000 | > 10000 | –
CCCCCCOc1cccc2c1[C@]13CCN(CC4CC4)[C@H](C2)[C@]1(OC)C=CC(=O)C3 | 405000 | – | – | – | –
CCO[C@@]12CCC(=O)[C@]3(C)Oc4c(O)ccc5c4[C@@]31CCN(C)[C@@H]2C5 | – | 10.2 | 4.8 | 0.1 | –
COc1cccc2c1[C@]13CCN(C)[C@H](C2)[C@]1(OC)CCC(=O)C3 | 46200 | 403 | 101 | 1.15 | –
CO[C@@]12CCC(=O)[C@@H]3Oc4cccc5c4[C@@]31CCN(C)[C@@H]2C5 | 140000 | – | – | – | –
CN1CC[C@]23c4c5cccc4O[C@H]2C(=O)CC[C@@]3(O)[C@H]1C5 | 65300 | – | – | – | –
C=CCN1CC[C@]23CC(=O)CC[C@@]2(OC)[C@H]1Cc1cccc(OC)c13 | – | 567 | 210 | 2 | –
C=CCN1CC[C@@]23CCCC[C@@H]2[C@@H]1Cc1ccc(O)cc13 [DEXTALLORPHAN] | – | – | – | – | 20000
CN1CC[C@@]23CCCC[C@@H]2[C@@H]1Cc1ccc(O)cc13 [DEXTRORPHAN] | – | – | – | – | 20000
C=CCN1CC[C@]23CCCC[C@H]2[C@H]1Cc1ccc(O)cc13 [LEVALLORPHAN] | – | – | – | – | 12000
CN1CC[C@]23CCCC[C@H]2[C@H]1Cc1ccc(O)cc13 [LEVORPHANOL] | – | – | – | – | 25000
COc1ccc2c3c1O[C@H]1C(=O)CC[C@@]4(O)[C@@H](C2)N(C)CC[C@]314 [OXYCODONE] | 76200 | – | – | – | –
